Data on 47 compounds can be found in patent US8685974B2 (Bayer CropScience AG, priority 2009, dated 2014).

Read-outs that look alike come from different tables or passages of the source. Marks after values point to notes of the source that are not given here.

For the compound `Cc1[nH]nc(-c2ccc(Cl)s2)c1-c1ccncc1` [Example 68], the log p (pH 2.7) was 1.07^[b].
On to `COc1nccc(-c2c[nH]nc2-c2ccc(Cl)s2)n1` [Example 69], for which, where the note is “pH 2.3”, the log p is 2.23^[a].
In the case of `CC(C)Cn1cc(-c2ccnc(Cl)c2)c(-c2ccc(Cl)s2)n1` [Example 70], the log p (pH 2.3) was 4.85^[a].
With `CCCNc1cc(-c2c[nH]nc2-c2ccc(Cl)s2)cc[n+]1[O-]` [Example 71], the log p (pH 2.3) was 1.9^[a].
With `CC(C)Cn1ncc(-c2ccnc(Cl)c2)c1-c1ccc(Cl)s1` [Example 72], for the setting “pH 2.3”, the log p was 4.65^[a].
With `CC(C)Cn1cc(-c2cc[n+]([O-])c(NCc3ccccc3)c2)c(-c2ccc(Cl)s2)n1` [Example 73], the log p (pH 2.3) is 3.73^[a].
Take `CC(C)Cn1cc(-c2cc[n+]([O-])c(Cl)c2)c(-c2ccc(Cl)s2)n1` [Example 74]: under “pH 2.3”, the log p was 3.04^[a] and the “logP value of the minor isomer (in parenthesis in column Isomer ratio [d])” value is “(2.82)”.
In the case of `CC(C)Cn1ncc(-c2cc[n+]([O-])c(NCc3ccccc3)c2)c1-c1ccc(Cl)s1` [Example 75], the log p (pH 2.3) is 3.48^[a].
For the compound `CC(C)Cn1cc(-c2cc[n+]([O-])c(N)c2)c(-c2ccc(Cl)s2)n1` [Example 77], where the note is “pH 2.3”, the log p was 2.39^[a] and the “logP value of the minor isomer (in parenthesis in column Isomer ratio [d])” value is given as “(2.21)”.
In the case of `NNc1nccc(-c2c[nH]nc2-c2ccc(Cl)s2)n1` [Example 78], the log p (pH 2.3) was 2.26^[a].
With `CN(C)c1nccc(-c2c[nH]nc2-c2ccc(Cl)s2)n1` [Example 79], the log p (pH 2.3) is 1.69^[a].
In the case of `Clc1nccc(-c2c[nH]nc2-c2ccc(Cl)s2)n1` [Example 81], the log p (pH 2.3) was 2.64^[a].
With `C#CCNc1cc(-c2cnn(CC(C)C)c2-c2ccc(Cl)s2)cc[n+]1[O-]` [Example 83], the log p (pH 2.3) was 2.7^[a].
For `C#CCNc1cc(-c2cn(CC(C)C)nc2-c2ccc(Cl)s2)cc[n+]1[O-]` [Example 84], the log p (pH 2.3) is 2.92^[a].
Take `N#Cc1[nH]nc(-c2ccc(Cl)s2)c1-c1ccncc1` [Example 85]: the log p (pH 2.7) was 1.53^[b].
As to `CCOC(=O)n1cc(-c2ccncc2)c(-c2ccc(Cl)s2)n1` [Example 87], for the setting “pH 2.7”, the log p is 1.97^[b].
The same measure, in the same setting: to `CS(=O)(=O)n1cc(-c2ccncc2)c(-c2ccc(Cl)s2)n1` [Example 88] belongs 1.78^[b]; to `CC(C)NC(=O)n1cc(-c2ccncc2)c(-c2ccc(Cl)s2)n1` [Example 89], 2.26^[b].
In the case of `Clc1ccc(-c2n[nH]cc2-c2ccnc(NCc3ccccc3)n2)s1` [Example 90], the log p (pH 2.3) was 2.37^[a].
On to `CC(CN(C)C)Cn1cc(-c2ccnc(Cl)c2)c(-c2ccc(Cl)s2)n1` (stereo not shown) [Example 91], for which, for the setting “pH 2.3”, the log p is 1.84^[a] and the “logP value of the minor isomer (in parenthesis in column Isomer ratio [d])” value is given as “(1.74)”.
For the compound `CC(C)Cn1cc(-c2ccnc(NCc3ccccc3)n2)c(-c2ccc(Cl)s2)n1` [Example 93], the log p (pH 2.3) is 4.31^[a].
On to `CC(C)Cn1cc(-c2ccnc(N(Cc3ccccc3)C(=O)C(C)C)n2)c(-c2ccc(Cl)s2)n1` [Example 94], for which the log p (pH 2.3) is 5.88^[a].
On the same count and under the same terms, to `CC(C)Cn1ncc(-c2ccnc(NCc3ccccc3)n2)c1-c1ccc(Cl)s1` [Example 96] belongs 3.96^[a].
Regarding `CCC(C)n1cc(-c2ccnc(C(=O)NC(C)C)c2)c(-c2ccc(Cl)s2)n1` (stereo not shown) [Example 99], for the setting “pH 2.7”, the log p was 4.82^[b].
Consider `CCC(C)n1cc(-c2ccnc(Br)c2)c(-c2ccc(Cl)s2)n1` (stereo not shown) [Example 100], for which the log p (pH 2.7) was 5.03^[b].
For the compound `COc1ccc(Cn2nc(-c3ccc(Cl)s3)c(-c3ccncc3)c2[Si](C)(C)C)cc1` [Example 102], the log p (pH 2.7) is 4.84^[b].
As to `COc1ccc(Cn2nc(-c3ccc(Cl)s3)c(-c3ccncc3)c2SC)cc1` [Example 103], the log p (pH 2.7) was 3.78^[b].
`CCC(C)n1cc(-c2ccnc(C#CC3CC3)c2)c(-c2ccc(Cl)s2)n1` (stereo not shown) [Example 111]: the log p (pH 2.7) is 4.56^[b].
Take `C#CCNc1cc(-c2cn(CC(C)C)nc2-c2ccc(Cl)s2)ccn1` [Example 112]: the log p (pH 2.7) is 2.30^[b].
As to `Fc1ccccc1Cn1cc(-c2ccncc2)c(-c2sccc2Cl)n1` [Example 113], where the note is “pH 2.7”, the log p is 1.74^[b] and the “logP value of the minor isomer (in parenthesis in column Isomer ratio [d])” value is “(1.76)”.
Turning to `CC(C)n1cc(-c2ccncc2)c(-c2cc(Cl)cs2)n1` [Example 114], under “pH 2.7”, the log p is 1.6^[b] and the “logP value of the minor isomer (in parenthesis in column Isomer ratio [d])” value is on record as “(1.74)”.
In the case of `COCn1cc(-c2ccnc(NC(C)C)n2)c(-c2ccc(Cl)s2)n1` [Example 115], where the note is “pH 2.7”, the log p is 2.39^[b] and the “logP value of the minor isomer (in parenthesis in column Isomer ratio [d])” value is “(2.39)”.
With `CCC(CC)n1cc(-c2ccnc(NC(C)C)n2)c(-c2ccc(Cl)s2)n1` [Example 116], for the setting “pH 2.7”, the log p was 3.57^[b] and the “logP value of the minor isomer (in parenthesis in column Isomer ratio [d])” value is given as “(3.37)”.
Take `C#CCn1cc(-c2ccnc(NC(C)C)n2)c(-c2ccc(Cl)s2)n1` [Example 117]: under “pH 2.7”, the log p is 2.52^[b] and the “logP value of the minor isomer (in parenthesis in column Isomer ratio [d])” value was “(3.13)”.
In the case of `CC(C)=CCn1cc(-c2ccnc(NC(C)C)n2)c(-c2ccc(Cl)s2)n1` [Example 118], where the note is “pH 2.7”, the log p was 3.44^[b] and the “logP value of the minor isomer (in parenthesis in column Isomer ratio [d])” value is listed as “(3.00)”.
Take `CC(C)Nc1nccc(-c2cn(CCCl)nc2-c2ccc(Cl)s2)n1` [Example 119]: for the setting “pH 2.7”, the log p was 2.63^[b] and the “logP value of the minor isomer (in parenthesis in column Isomer ratio [d])” value is recorded as “(2.35)”.
With `CCOCCn1cc(-c2ccnc(NC(C)C)n2)c(-c2ccc(Cl)s2)n1` [Example 120], where the note is “pH 2.7”, the log p is 2.56^[b] and the “logP value of the minor isomer (in parenthesis in column Isomer ratio [d])” value was “(2.33)”.
Consider `CC(C)Nc1nccc(-c2cn(Cc3ccccc3F)nc2-c2ccc(Cl)s2)n1` [Example 121], for which, where the note is “pH 2.7”, the log p is 3.39^[b] and the “logP value of the minor isomer (in parenthesis in column Isomer ratio [d])” value was “(3.02”.
For the compound `CC(C)Nc1nccc(-c2cn(CC#N)nc2-c2ccc(Cl)s2)n1` [Example 122], for the setting “pH 2.7”, the log p was 2.4^[b].
For the compound `C=CC(C)n1cc(-c2ccnc(NC(C)C)n2)c(-c2ccc(Cl)s2)n1` (stereo not shown) [Example 123], for the setting “pH 2.7”, the log p was 3.02^[b] and the “logP value of the minor isomer (in parenthesis in column Isomer ratio [d])” value is reported as “(2.73)”.
As to `CC(C)Nc1nccc(-c2cn(CC(F)(F)F)nc2-c2ccc(Cl)s2)n1` [Example 124], the log p (pH 2.7) was 3.11^[b].
For `Cn1cc(-c2ccncc2)c(-c2cc(Cl)cs2)n1` [Example 125], for the setting “pH 2.7”, the log p is 1.11^[b] and the “logP value of the minor isomer” value is “(1.05)”.
Consider `N#CCCn1cc(-c2ccncc2)c(-c2cc(Cl)cs2)n1` [Example 126], for which, for the setting “pH 2.7”, the log p was 1.16^[b].
In the case of `FC(F)Cn1cc(-c2ccncc2)c(-c2sccc2Cl)n1` [Example 127], under “pH 2.7”, the log p was 1.14^[b] and the “logP value of the minor isomer” value is listed as “(1.17)”.
In the case of `Clc1ccsc1-c1nn(CCc2ccccc2)cc1-c1ccncc1` [Example 128], under “pH 2.7”, the log p was 1.88^[b] and the “logP value of the minor isomer” value is “(1.84)”.
Consider `COCn1cc(-c2ccncc2)c(-c2sccc2Cl)n1` [Example 129], for which the log p (pH 2.7) was 0.95^[b].
Take `CCC(CC)n1cc(-c2ccncc2)c(-c2sccc2Cl)n1` [Example 130]: where the note is “pH 2.7”, the log p is 1.78^[b] and the “logP value of the minor isomer” value is reported as “(1.88)”.
